Conditions: Liquid

CCCCC(C)O (centres undefined) [2-hexanol]
Conditions	mass density [kg/m3]
313.13 K, 1010 kPa	799.26
313.13 K, 2006 kPa	800.05
313.13 K, 2999 kPa	800.83
313.13 K, 4008 kPa	801.59
313.13 K, 4999 kPa	802.35
313.13 K, 5986 kPa	803.12
313.13 K, 7000 kPa	803.86
313.13 K, 8010 kPa	804.64
313.13 K, 9026 kPa	805.38
313.13 K, 10004 kPa	806.09
313.13 K, 11005 kPa	806.84
313.13 K, 12001 kPa	807.56
313.13 K, 13010 kPa	808.28
313.13 K, 14002 kPa	808.98
313.13 K, 14998 kPa	809.67
313.13 K, 16001 kPa	810.39
313.13 K, 17006 kPa	811.08
313.13 K, 18000 kPa	811.7
313.13 K, 19005 kPa	812.39
313.13 K, 20015 kPa	813.1
313.13 K, 21029 kPa	813.74
313.13 K, 22004 kPa	814.4
323.09 K, 1037 kPa	791
323.09 K, 2000 kPa	791.79
323.09 K, 3010 kPa	792.63
323.09 K, 4029 kPa	793.48
323.09 K, 5004 kPa	794.27
323.09 K, 6020 kPa	795.1
323.09 K, 7007 kPa	795.84
323.09 K, 8009 kPa	796.68
323.09 K, 9017 kPa	797.48
323.09 K, 10003 kPa	798.25
323.09 K, 11001 kPa	799
323.09 K, 12000 kPa	799.77
323.09 K, 13021 kPa	800.56
323.09 K, 14001 kPa	801.3
323.09 K, 15002 kPa	802
323.09 K, 16000 kPa	802.74
323.09 K, 17004 kPa	803.48
323.09 K, 18008 kPa	804.21
323.09 K, 19001 kPa	804.9
323.09 K, 20011 kPa	805.62
323.09 K, 21003 kPa	806.31
323.09 K, 22004 kPa	807.01
333.04 K, 1055 kPa	782.56
333.04 K, 2007 kPa	783.43
333.04 K, 3005 kPa	784.28
333.04 K, 4007 kPa	785.21
333.04 K, 5015 kPa	786.06
333.04 K, 6009 kPa	786.93
333.04 K, 7006 kPa	787.77
333.04 K, 7998 kPa	788.61
333.04 K, 9006 kPa	789.47
333.04 K, 10004 kPa	790.32
333.04 K, 11007 kPa	791.11
333.04 K, 12012 kPa	791.93
333.04 K, 13003 kPa	792.72
333.04 K, 14008 kPa	793.51
333.04 K, 15005 kPa	794.3
333.04 K, 16001 kPa	795.06
333.04 K, 17006 kPa	795.85
333.04 K, 18010 kPa	796.61
333.04 K, 19002 kPa	797.35
333.04 K, 20000 kPa	798.08
333.04 K, 21000 kPa	798.82
333.04 K, 22004 kPa	799.56
342.98 K, 1032 kPa	774.05
342.98 K, 2015 kPa	775.01
342.98 K, 3012 kPa	775.95
342.98 K, 4017 kPa	776.87
342.98 K, 5013 kPa	777.79
342.98 K, 6012 kPa	778.72
342.98 K, 7025 kPa	779.62
342.98 K, 8000 kPa	780.47
342.98 K, 9000 kPa	781.35
342.98 K, 9996 kPa	782.25
342.98 K, 11020 kPa	783.12
342.98 K, 11999 kPa	783.92
342.98 K, 12996 kPa	784.76
342.98 K, 14007 kPa	785.6
342.98 K, 15003 kPa	786.41
342.98 K, 16005 kPa	787.17
342.98 K, 17002 kPa	787.98
342.98 K, 18010 kPa	788.76
342.98 K, 19005 kPa	789.49
342.98 K, 20010 kPa	790.27
342.98 K, 21006 kPa	791
342.98 K, 22005 kPa	791.75
352.86 K, 1053 kPa	765.06
352.86 K, 2014 kPa	766.05
352.86 K, 3019 kPa	767.09
352.86 K, 4033 kPa	768.08
352.86 K, 4996 kPa	769.01
352.86 K, 6006 kPa	770.06
352.86 K, 7013 kPa	771.02
352.86 K, 8004 kPa	771.95
352.86 K, 9035 kPa	772.93
352.86 K, 10009 kPa	773.84
352.86 K, 11007 kPa	774.75
352.86 K, 12007 kPa	775.66
352.86 K, 12999 kPa	776.54
352.86 K, 14012 kPa	777.47
352.86 K, 15010 kPa	778.33
352.86 K, 16003 kPa	779.21
352.86 K, 17002 kPa	780.07
352.86 K, 18017 kPa	780.92
352.86 K, 19005 kPa	781.75
352.86 K, 20014 kPa	782.58
352.86 K, 21013 kPa	783.39
352.86 K, 22010 kPa	784.18
362.73 K, 1075 kPa	754.97
362.73 K, 2006 kPa	756.02
362.73 K, 3018 kPa	757.16
362.73 K, 4034 kPa	758.26
362.73 K, 5016 kPa	759.29
362.73 K, 6066 kPa	760.41
362.73 K, 6998 kPa	761.37
362.73 K, 8041 kPa	762.44
362.73 K, 9014 kPa	763.43
362.73 K, 10001 kPa	764.37
362.73 K, 11026 kPa	765.39
362.73 K, 12000 kPa	766.35
362.73 K, 13010 kPa	767.31
362.73 K, 13999 kPa	768.28
362.73 K, 15006 kPa	769.21
362.73 K, 16006 kPa	770.12
362.73 K, 17005 kPa	771.02
362.73 K, 18000 kPa	771.92
362.73 K, 19003 kPa	772.82
362.73 K, 20017 kPa	773.7
362.73 K, 21006 kPa	774.56
362.73 K, 22010 kPa	775.42

CCCCCCCCCCO [decan-1-ol]
Conditions	mass density [kg/m3]
313.12 K, 1025 kPa	816.79
313.12 K, 2002 kPa	817.46
313.12 K, 2995 kPa	817.98
313.12 K, 4013 kPa	818.58
313.12 K, 5004 kPa	819.21
313.12 K, 5994 kPa	819.86
313.12 K, 7003 kPa	820.47
313.12 K, 7997 kPa	821.19
313.12 K, 9000 kPa	821.73
313.12 K, 9994 kPa	822.38
313.12 K, 10995 kPa	823.02
313.12 K, 11995 kPa	823.67
313.12 K, 12997 kPa	824.2
313.12 K, 13996 kPa	824.82
313.12 K, 14998 kPa	825.42
313.12 K, 15990 kPa	826.01
313.12 K, 16995 kPa	826.61
313.12 K, 17986 kPa	827.14
313.12 K, 18992 kPa	827.76
313.12 K, 19993 kPa	828.31
313.12 K, 20999 kPa	828.88
313.12 K, 21509 kPa	829.19
323.09 K, 1002 kPa	809.87
323.09 K, 2011 kPa	810.59
323.09 K, 3019 kPa	811.21
323.09 K, 4014 kPa	811.83
323.09 K, 5006 kPa	812.47
323.09 K, 6012 kPa	813.18
323.09 K, 7002 kPa	813.8
323.09 K, 8003 kPa	814.42
323.09 K, 9008 kPa	815.1
323.09 K, 10006 kPa	815.7
323.09 K, 11000 kPa	816.38
323.09 K, 12002 kPa	816.97
323.09 K, 13002 kPa	817.64
323.09 K, 14000 kPa	818.21
323.09 K, 15017 kPa	818.84
323.09 K, 16003 kPa	819.4
323.09 K, 17015 kPa	820.02
323.09 K, 18006 kPa	820.61
323.09 K, 19007 kPa	821.24
323.09 K, 20007 kPa	821.84
323.09 K, 21002 kPa	822.41
323.09 K, 22014 kPa	823.01
333.04 K, 1046 kPa	802.82
333.04 K, 2018 kPa	803.5
333.04 K, 3008 kPa	804.21
333.04 K, 4012 kPa	804.88
333.04 K, 5059 kPa	805.62
333.04 K, 6016 kPa	806.29
333.04 K, 7022 kPa	807
333.04 K, 8014 kPa	807.64
333.04 K, 9015 kPa	808.34
333.04 K, 10015 kPa	808.97
333.04 K, 11019 kPa	809.64
333.04 K, 12007 kPa	810.31
333.04 K, 13019 kPa	810.96
333.04 K, 14019 kPa	811.6
333.04 K, 15014 kPa	812.24
333.04 K, 16021 kPa	812.88
333.04 K, 17026 kPa	813.5
333.04 K, 18023 kPa	814.11
333.04 K, 19018 kPa	814.72
333.04 K, 20025 kPa	815.35
333.04 K, 21020 kPa	815.94
333.04 K, 22032 kPa	816.58
342.98 K, 1058 kPa	795.63
342.98 K, 2045 kPa	796.4
342.98 K, 3022 kPa	797.12
342.98 K, 4035 kPa	797.9
342.98 K, 5028 kPa	798.63
342.98 K, 6030 kPa	799.37
342.98 K, 7023 kPa	800.07
342.98 K, 8028 kPa	800.78
342.98 K, 9062 kPa	801.51
342.98 K, 10035 kPa	802.22
342.98 K, 11029 kPa	802.92
342.98 K, 12064 kPa	803.64
342.98 K, 13023 kPa	804.31
342.98 K, 14042 kPa	805
342.98 K, 15022 kPa	805.66
342.98 K, 16022 kPa	806.36
342.98 K, 17021 kPa	807
342.98 K, 18034 kPa	807.7
342.98 K, 19025 kPa	808.35
342.98 K, 20038 kPa	808.98
342.98 K, 21018 kPa	809.62
342.98 K, 22035 kPa	810.28
352.86 K, 1069 kPa	788.44
352.86 K, 2043 kPa	789.24
352.86 K, 3040 kPa	790.04
352.86 K, 4048 kPa	790.78
352.86 K, 5038 kPa	791.59
352.86 K, 6043 kPa	792.34
352.86 K, 7038 kPa	793.09
352.86 K, 8039 kPa	793.84
352.86 K, 9040 kPa	794.57
352.86 K, 10038 kPa	795.32
352.86 K, 11032 kPa	796.04
352.86 K, 12032 kPa	796.74
352.86 K, 13040 kPa	797.47
352.86 K, 14046 kPa	798.18
352.86 K, 15043 kPa	798.89
352.86 K, 16037 kPa	799.59
352.86 K, 17040 kPa	800.26
352.86 K, 18046 kPa	800.95
352.86 K, 19040 kPa	801.63
352.86 K, 20064 kPa	802.32
352.86 K, 21048 kPa	802.96
352.86 K, 22049 kPa	803.62
362.89 K, 1077 kPa	781.02
362.89 K, 2027 kPa	781.83
362.89 K, 3089 kPa	782.69
362.89 K, 4047 kPa	783.49
362.89 K, 5061 kPa	784.29
362.89 K, 6060 kPa	785.12
362.89 K, 7041 kPa	785.91
362.89 K, 8049 kPa	786.7
362.89 K, 9049 kPa	787.47
362.89 K, 10052 kPa	788.25
362.89 K, 11045 kPa	788.99
362.89 K, 12044 kPa	789.75
362.89 K, 13054 kPa	790.54
362.89 K, 14053 kPa	791.25
362.89 K, 15052 kPa	792
362.89 K, 16056 kPa	792.77
362.89 K, 17063 kPa	793.47
362.89 K, 18062 kPa	794.2
362.89 K, 19062 kPa	794.91
362.89 K, 20068 kPa	795.64
362.89 K, 21072 kPa	796.35
362.89 K, 22063 kPa	797.03

From the NIST ThermoML archive (doi:10.1021/je700145e)
